Each structure is given as a SMILES string.

The target in this assay is T1, human mGlu5a receptor (Homo sapiens, UniProt P41594).
T1 construct: expressed in transfected cells
Briefly: Intracellular Ca2+ mobilization assay. It counts as cell-based. Conditions: for Emax: HEK293, maximal response in % of the maximal stimulatory effect obtained with saturating concentrations of L-glutamate, HEK-293 human mGlu5a cells, L-glutamate at EC20, read-out: Efficacy (%); for EC50: HEK-293 cells stably transfected with human mGlu5a receptor, pre-incubation 10-30 min with test compound, then L-glutamate at EC20 (typically around 80 μM), Fluo-4AM fluorescence, read-out: EC50 (nM) mGluR5 PAM. As for the experimental part: A monoclonal HEK-293 cell line stably transfected with a cDNA encoding for the human mGlu5a receptor was generated; for the work with mGlu5 Positive Allosteric Modulators (PAMs), a cell line with low receptor expression levels and low constitutive receptor activity was selected to allow the differentiation of agonistic versus PAM activity. Cells were cultured according to standard protocols (Freshney, 2000) in Dulbecco's Modified Eagle Medium with high glucose supplemented with 1 mM glutamine, 10% (vol/vol) heat-inactivated bovine calf serum, Penicillin/Streptomycin, 50 μg/ml hygromycin and 15 μg/ml blasticidin (all cell culture reagents and antibiotics from Invitrogen, Basel, Switzerland).
About 24 hrs before an experiment, 5×10^4 cells/well were seeded in poly-D-lysine coated, black/clear-bottomed 96-well plates. The cells were loaded with 2.5 μM Fluo-4AM in loading buffer (1×HBSS, 20 mM HEPES) for 1 hr at 37° C. and washed five times with loading buffer. The cells were transferred into a Functional Drug Screening System 7000 (Hamamatsu, Paris, France), and 11 half logarithmic serial dilutions of test compound at 37° C. were added and the cells were incubated for 10-30 min. with on-line recording of fluorescence. Following this pre-incubation step, the agonist L-glutamate was added to the cells at a concentration corresponding to EC20 (typically around 80 μM) with on-line recording of fluorescence; in order to account for day-to-day variations in the responsiveness of cells, the EC20 of glutamate was determined immediately ahead of each experiment by recording of a full dose-response curve of glutamate.
Responses were measured as peak increase in fluorescence minus basal (i.e. fluorescence without addition of L-glutamate), normalized to the maximal stimulatory effect obtained with saturating concentrations of L-glutamate. Graphs were plotted with the % maximal stimulatory using XLfit, a curve fitting program that iteratively plots the data using Levenburg Marquardt algorithm. The single site competition analysis equation used was y=A+((B−A)/(1+((x/C)D))), where y is the % maximal stimulatory effect, A is the minimum y, B is the maximum y, C is the EC50, x is the log 10 of the concentration of the competing compound and D is the slope of the curve (the Hill Coefficient). From these curves the EC50 (concentration at which half maximal stimulation was achieved), the Hill coefficient as well as the maximal response in % of the maximal stimulatory effect obtained with saturating concentrations of L-glutamate were calculated.
A depression of the signal observed after addition of the EC20 concentration of L-glutamate was indicative of an inhibitory activity of the test compound.
On the technique in general: A change in cytosolic calcium serves as a functional read-out for many receptors and channels.

T1 sequence (P41594 21-1180 isoform P41594-2 limits assumed): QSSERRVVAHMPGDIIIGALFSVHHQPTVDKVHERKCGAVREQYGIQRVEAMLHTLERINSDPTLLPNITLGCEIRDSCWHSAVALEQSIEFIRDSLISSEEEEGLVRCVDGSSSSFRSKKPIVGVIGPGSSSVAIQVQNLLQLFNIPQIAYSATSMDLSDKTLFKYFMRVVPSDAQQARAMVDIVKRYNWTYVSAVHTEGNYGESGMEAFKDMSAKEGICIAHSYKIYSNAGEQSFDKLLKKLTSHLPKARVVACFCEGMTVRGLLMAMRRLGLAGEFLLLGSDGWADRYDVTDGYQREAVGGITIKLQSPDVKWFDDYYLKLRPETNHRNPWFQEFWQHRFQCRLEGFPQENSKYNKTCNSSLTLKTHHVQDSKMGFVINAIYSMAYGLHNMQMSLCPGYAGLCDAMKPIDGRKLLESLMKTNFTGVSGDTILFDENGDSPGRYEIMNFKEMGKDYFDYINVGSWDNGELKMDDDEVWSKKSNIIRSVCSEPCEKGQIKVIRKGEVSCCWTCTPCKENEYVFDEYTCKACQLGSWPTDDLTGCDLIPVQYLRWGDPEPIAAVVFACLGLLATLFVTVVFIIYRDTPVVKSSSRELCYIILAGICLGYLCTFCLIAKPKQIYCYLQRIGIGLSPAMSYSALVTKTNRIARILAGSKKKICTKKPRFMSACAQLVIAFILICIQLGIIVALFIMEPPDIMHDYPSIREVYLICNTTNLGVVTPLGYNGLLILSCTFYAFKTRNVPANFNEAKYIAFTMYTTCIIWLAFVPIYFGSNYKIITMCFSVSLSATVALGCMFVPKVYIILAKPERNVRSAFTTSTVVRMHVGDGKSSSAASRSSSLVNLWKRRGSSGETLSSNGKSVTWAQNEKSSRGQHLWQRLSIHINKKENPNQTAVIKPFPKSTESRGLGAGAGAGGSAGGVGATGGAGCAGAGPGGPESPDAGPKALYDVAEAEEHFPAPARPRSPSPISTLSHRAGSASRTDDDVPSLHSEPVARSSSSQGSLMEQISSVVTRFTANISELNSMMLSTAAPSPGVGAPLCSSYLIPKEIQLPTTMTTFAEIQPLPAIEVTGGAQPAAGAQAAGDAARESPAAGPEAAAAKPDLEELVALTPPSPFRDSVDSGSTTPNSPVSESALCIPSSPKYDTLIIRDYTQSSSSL

A word on the EC50: it is the concentration at which the effect is half-maximal. Regarding `CC1(C)CC(=O)N(Cc2ccc(C#Cc3ccccc3)cn2)C1` [Example 33, 4,4-Dimethyl-1-(5-phenylethynyl-pyridin-2-ylmethyl)-pyrrolidin-2-one], the Emax worked out at 177% and the EC50 was 132 nM.

For `O=C1OCCCN1Cc1ccc(C#Cc2ccccc2)cn1` [Example 34, 3-(5-Phenylethynyl-pyridin-2-ylmethyl)-[1,3]oxazinan-2-one], the Emax is 119% and the EC50 was found to be 174 nM.

As to `CN1CCN(Cc2ccc(C#Cc3ccccc3)cn2)C1=O` [Example 35, 1-Methyl-3-(5-phenylethynyl-pyridin-2-ylmethyl)-imidazolidin-2-one], the Emax amounted to 119% and the EC50 is 68 nM.

As to `CC1(C)CCC(=O)N1Cc1ccc(C#Cc2ccccc2)cn1` [Example 36, 5,5-Dimethyl-1-(5-phenylethynyl-pyridin-2-ylmethyl)-pyrrolidin-2-one], the Emax came out at 82% and the EC50 amounted to 84 nM.

As to `O=C1N(Cc2ccc(C#Cc3ccccc3)cn2)CCN1c1ccccc1` [Example 37, 1-Phenyl-3-(5-phenylethynyl-pyridin-2-ylmethyl)-imidazolidin-2-one], the Emax is 84% and the concentration giving a half-maximal response (EC50) turned out to be 103 nM.

With `CC1(C)CCC(=O)N(Cc2ccc(C#Cc3ccccc3)cn2)C1` [Example 38, 5,5-Dimethyl-1-(5-phenylethynyl-pyridin-2-ylmethyl)-piperidin-2-one], the Emax was found to be 94% and the EC50 turned out to be 161 nM.

Take `CN1CCCN(Cc2ccc(C#Cc3ccccc3)cn2)C1=O` [Example 40, 1-Methyl-3-(5-phenylethynyl-pyridin-2-ylmethyl)-tetrahydro-pyrimidin-2-one]: the Emax came to 123% and the EC50 is 140 nM.

Consider `O=C1OCCN1Cc1ncc(C#Cc2ccccc2)cn1` [Example 42, 3-(5-Phenylethynyl-pyrimidin-2-ylmethyl)-oxazolidin-2-one], for which the Emax stood at 120% and the EC50 amounted to 631 nM.

With `CN(c1ncc(C#Cc2ccccc2)cn1)C1CCOCC1` [Example 43, Methyl-(5-phenylethynyl-pyrimidin-2-yl)-(tetrahydro-pyran-4-yl)-amine], the Emax is 84% and the EC50 amounted to 195 nM.

For the molecule `CN(c1ccc(C#Cc2ccccc2)cn1)C1CCOCC1` [Example 44], the Emax was 103% and the EC50 amounted to 338 nM.

Source of the values: US8716316B2 (Hoffmann-La Roche Inc., priority 2009, dated 2014).
